1 compound from patent publication US20110070357A1, “Apparatus and Methods for Loading a Drug Eluting Medical Device” (Medtronic Vascular, Inc., priority 2009, published 2011) can be followed below.

This data set is described as follows: solubility of sirolimus in solvents / dispersion media. The class given is physicochemical. Here is the method: Solution 524 is a homogeneous mixture in which therapeutic substance 112 dissolves within a solvent or a solvent mixture. In one embodiment, solution 524 includes a high-capacity solvent 528 which is an organic solvent that has a high capacity to dissolve therapeutic substance 112. High capacity as utilized herein is defined as an ability to dissolve therapeutic substance 112 at concentrations greater than 500 mg of substance per milliliter of solvent. Examples of high capacity drug dissolving solvents for sirolimus and similar substances include but are not limited to tetrahydrofuran (THF), di-chloromethane (DCM), chloroform, and di-methyl-sulfoxide (DMSO). In addition to the high-capacity solvent, solution 524 may include an excipient 526 in order to assist in drug elution. In one embodiment, excipient 526 may be a surfactant such as but not limited to sorbitan fatty acid esters such as sorbitan monooleate and sorbitan monolaurate, polysorbates such as polysorbate 20, polysorbate 60, and polysorbate 80, cyclodextrins such as 2-hydroxypropyl-beta-cyclodextrin and 2,6-di-O-methyl-beta-cyclodextrin, sodium dodecyl sulfate, octyl glucoside, and low molecular weight poly(ethylene glycol)s. In another embodiment, excipient 526 may be a hydrophilic agent such as but not limited to salts such as sodium chloride and other materials such as urea, citric acid, and ascorbic acid. […]

Each structure is given as a SMILES string.

In the case of `CO[C@H]1C[C@@H]2CC[C@@H](C)[C@@](O)(O2)C(=O)C(=O)N2CCCC[C@H]2C(=O)O[C@H]([C@H](C)C[C@@H]2CC[C@@H](O)[C@H](OC)C2)CC(=O)[C@H](C)/C=C(\C)[C@@H](O)[C@@H](OC)C(=O)[C@H](C)C[C@H](C)/C=C/C=C/C=C/1C` [sirolimus], for the setting “hexane”, the solubility in hexane result is on record as “insoluble in hexane”. In addition, the solubility in water entry (water) is “insoluble in water”.
